Peptide text beside a SMILES is read from it. * marks the point of attachment. Cbz = O=C(OCc1ccccc1)*; CH2F = FC*
Experiments:
[1] = system: four different human glioma cell lines; assay: Recombinant Gal-3 added to culture medium, cell number; assay type: cell-based
Protocol: FIG. 6D. Purified recombinant human Gal-3 (Research Diagnostics Inc.) induces cytotoxicity in four glioma cell lines in a dose-response fashion (0, 5, 12.5, 25, 50, 100, 150 ng/ml) within 48 hrs.
A comparison of rGal3 with naturally secreted Gal3 evidences post-translational modifications in the naturally secreted one (data not shown).

LN-Z308 glioma cells = assay: Crystal violet assay, CM of sGal-3 transfected 293 cells; assay type: cell-based, human; conditions: CM of transfected 293 cells as source of sGal-3, after 48 h
Protocol: (§1) 293 cells were transfected using GenePORTER reagent (Gene Therapy Systems; CA, USA) with the pUMVC7-sGal-3 plasmid and switched over to serum free media 16 h later. The CM was collected after 48 h, floating cells removed through centrifugation at 1000 g, and filtrated through a 0.8 μm filter (Corning; NY, USA). Cells were plated at 5,000 cells per well in 24-well plates and treated with serial dilutions of CM from either pCMV-LacZ or pUMVC7-sGal-3 transfected 293 cells. Relative cell number compared to serum free media control was quantified in triplicate 24 h and 48 h post treatment using either an MTT kit (Roche; IN, USA) or by crystal violet assay by acquiring absorbance at 575 nm using a spectrophotometer.
(§2) After cleavage of the secretion signal, the sGal-3 amino acid sequence is identical to the endogenous secretion product. It is nevertheless possible that sGal3 will have different post-translational modifications that may vary between the exosome-mediated secretory pathway and the classical secretion pathway. To verify the functionality of the construct, the construct was transfected in 293-CLH cells where it mediated a robust increase in the expression and secretion of Gal-3 without intracellular accumulation (FIG. 6A). Using the CM of transfected 293 cells as a source of sGal-3, its effect on the growth of SF767, LN-Z308 and LN229 glioma cells was determined using a crystal violet assay. […] Cells incubated with serum free medium or CM from 293 cells transfected with control pCMV-lacZ plasmid were unaffected (FIG. 6B).

LN229 glioma cells = assay: as above; assay type: cell-based, human; conditions: CM of transfected 293 cells as source of sGal-3, after 48 h
Protocol: as §1, §2

SF767 glioma cells = assay: as above; assay type: cell-based, human; conditions: CM of transfected 293 cells as source of sGal-3, after 48 h
Protocol: as §1, §2

[2] = system: A549 lung cancer cell line; assay: as above; assay type: cell-based
Protocol: as §1
(§3) To examine whether the cytotoxic effect of Gal-3 was limited to glioma or whether it represents a more general anti-cancer property, two breast cancer (MD468 and MCF7), two lung cancer (A549 and H1289) and two prostate cancer (LnCaP and PC3) cell lines were tested using the same assay and found all of them to be sensitive to sGal-3 presence in the medium (FIG. 6B).

[3] = system: H1289 lung cancer cell line; assay: as above; assay type: cell-based
Protocol: as §1, §3

[4] = system: LnCaP prostate cancer cell line; assay: as above; assay type: cell-based
Protocol: as §1, §3

[5] = system: MCF7 breast cancer cell line; assay: as above; assay type: cell-based
Protocol: as §1, §3

[6] = system: MD468 breast cancer cell line; assay: as above; assay type: cell-based
Protocol: as §1, §3

[7] = system: PC3 prostate cancer cell line; assay: as above; assay type: cell-based
Protocol: as §1, §3

[8] = system: human dermal microvascular endothelial cells (HDMEC); assay: Crystal violet assay, CM of sGal-3 transfected 293 cells, normal cells; assay type: cell-based
Protocol: as §1, §3

[9] = system: human foreskin fibroblasts (HFF); assay: as above; assay type: cell-based
Protocol: as §1, §3

[10] = system: LN229 and LN-Z308 glioma cells; assay: Apoptotic features after sGal-3 treatment with or without Z-VAD; assay type: cell-based, human
Protocol: (§4) FIG. 4: Secreted Gal-3 induces apoptosis in tumor cells. FIG. 4A. Bright field pictures and quantification of LN229 glioma cells after 12 h treatment with either secreted Gal-3 alone or in combination with 50 μM Z-VAD general caspase inhibitor. Note inhibition of sGal-3-mediated cell death when cells are co-treated with Z-VAD. Results were quantified by crystal violet assay and experiments repeated three times in triplicate. Similar results were obtained with LN-Z308 cells (data not shown). FIG. 4B.
(§5) Immunoblots were performed on cell lysates (lysed in 8 M urea, 4% SDS, in 10 mM Tris (pH 7.4)), from indicated cells. The conditioned media was precipitated by 15% TCA precipitation for 2 h at 4° C., washed twice with ice-cold acetone, and then resuspended in lysis buffer (8M urea, 4% SDS, 100 mM protease inhibitor cocktail (Roche, Germany)). Electrophoresis and blotting was performed using the Criterion system (BioRad; CA, USA) on. TCA precipitated proteins. […]
(§6) LN229 and LN-Z308 glioma cells were treated with either extracellular Gal-3 alone, or in combination with the Z-VAD general caspase inhibitor and analyzed the cells for apoptotic features.

[11] = system: Caspase-3 and PARP cleavage in LN229 cells; assay: Western blot for caspase-3 and PARP cleavage after sGal-3 treatment; assay type: cell-based, human
Protocol: as §4, §5, §6

[12] = system: LN229-L16-derived dox-inducible sGal-3 clones; assay: Dox-induced sGal-3 expression in cell culture; assay type: cell-based, human; conditions: within 3-5 days in cell culture
Protocol: Five μg of the plasmid DNA and 5 μl of GenePORTER reagent (Gene Therapy Systems; San Diego, Calif.) were used for each transfection. One μg of pcDNA3.1 containing the geneticin (G418)-resistance cassette was co-transfected at a […], when generating stable clones. Tetracycline-inducible sGal-3 transfected clones were generated in L16 glioma cells (Tet-on clone derived from LN229) by selecting for G418 resistance (1,200 μg/ml). The individual clones were assessed for expression of sGal-3 after 48 h dox induction by western blot analysis. For TSAP6 siRNA, HEK293 cells were transfected with either pcDNA3.1 vectors containing TSAP6 and Galectin-3 alone or in combination with […] or TSAP6 (pHYDE) siRNA (Santa Cruz, Calif., USA) using GenePORTER reagent (Gene Therapy Systems; CA, USA). Cells were allowed to recover overnight in 10% FBS containing DMEM before switching them to serum free media. Cells and CM were collected after 24 hours in serum free media.
To test this concept, dox-inducible sGal-3 clones were generated with variable expression levels in LN229-L16 cells (rtTA expressing) (see materials and methods) (FIG. 7A).

[13] = system: tumors of sGal-3 expressing tet-inducible clones #12 and #21; assay: In vivo mouse tumorigenicity assay (subcutaneous xenograft); set-up: species or system athymic nude mice
Protocol: FIG. 7C. sGal-3 inhibits tumor growth. Six-week old female athymic nude mice (NCI) were injected subcutaneously with 5×10^6 cells of clone #12 and divided into two groups (n=8). Similar results were obtained with clone #21. One group was left untreated while the second group was given 2 mg/ml Dox in drinking water containing 5% sucrose to induce expression of sGal-3 one week after tumor cell implantation until termination of the experiment. The length (a) and width (b) of the tumors were measured weekly and tumor volume was calculated in mm^3=(a×b^2)/2.
Six-week old female athymic nude mice (NCI) (n=8/group) were injected subcutaneously with 5×10^6 cells of the indicated cell lines. 2 mg/ml Dox was delivered orally in drinking water containing 5% sucrose to induce expression and secretion of Gal-3 one week post injection of tumor cells until termination of the experiment. The length (a) and width (b) of the tumors were measured weekly and tumor volume was calculated in mm^3=(a×b^2)/2.
To test directly the effect of sGal-3 on tumor growth in vivo, a nu/nu mouse xenograft model system was used. Cells (5×10^6) from the sGal-3 expressing tet-inducible clones #12 and #21 were injected subcutaneously in the mice and sGal-3 expression was induced one week post tumor cell implantation in half of the injected mice by feeding dox in the drinking water for 12 weeks (9 mice/group). Only 4 of the 18 tumors (clone #12) in the sGal-3 expressing group developed while 14/18 tumors grew in the control group. […] Immunohistochemistry for Gal-3 expression in excised tumors from mice treated with doxycycline confirmed that Gal-3 was expressed (FIG. 7D).

[14] = system: Gal-3 secretion in SF767 cells; assay: Western blot for secreted Gal-3 in SF767 glioma cells; assay type: cell-based, human; conditions: SF767, VP16 alone
Protocol: FIG. 2E. […] This effect is inhibited by p53 siRNA (lanes 5,6) but not control siRNA (lanes 3,4).
FIG. 23. […] This effect is inhibited by siRNAs for TSAP6 (lane 2), p53 (lane 3) and Fas (lane 4), but not control siRNA (lane 1).
Immunoblots were performed on cell lysates (lysed in 8 M urea, 4% SDS, in 10 mM Tris (pH 7.4)), from indicated cells. The conditioned media was precipitated by 15% TCA precipitation for 2 h at 4° C., washed twice with ice-cold acetone, and then resuspended in lysis buffer (8M urea, 4% SDS, 100 mM protease inhibitor cocktail (Roche, Germany)). Electrophoresis and blotting was performed using the Criterion system (BioRad; CA, USA) on. TCA precipitated proteins. Western blots were probed with antibodies for p53 (M7001-clone DO-7; DAKO; 1:500), p21 (MS-891-P1; Neomarkers, CA, USA; 1:250), Gal-3 (ab14364; Santa Cruz, Calif., USA; 1:500), HA (Roche; Germany, 1:500), caspase-3 (1:5000), α-TSP1 (MS-421-P1-Ab-4; NeoMarkers; CA, USA; 1:1000), and PARP (556494; BD Biosciences; CA, USA, 1:1000). Actin was used as a loading control (sc-1615, Santa Cruz Biotechnology; CA; 1:500). Blots were visualized by enhanced chemiluminescence (Pierce, IL, USA). For apoptosis analysis, cells were treated with either media containing secreted Gal-3 or with both secreted Gal-3 and 50 μm Z-VAD-FMK general caspase inhibitor (BD Biosciences; CA, USA). […]

SF767 cells = assay: Cell death in SF767 cells in response to VP16; assay type: cell-based, human; conditions: VP16 alone or with control siRNA
Description: The levels of cell death in SF767 cells in response to VP16 treatment in the presence of either p53 or TSAP-6 specific siRNAs as well as in the presence of anti-Gal-3 antibody were further determined. […] This effect was inhibited in the presence of specific siRNAs for p53 (FIGS. 2E and H) or TSAP-6 as well as in the presence of anti-Gal-3 antibody. The inhibition mediated by TSAP6 siRNA was not complete, likely reflecting the incomplete TSAP6 inhibition by this siRNA (FIG. 2E).

rGal-3: Purified recombinant human Gal-3 (Research Diagnostics Inc.)
potency compared with naturally secreted Gal-3 [1]: less than that found naturally secreted by human cells
cell number ([1]; increasing amounts (0, 5, 12.5, 25, 50, 100, 150 ng/ml) over 48 h): dose-dependent decrease in cell number

sGal-3: constitutively secreted soluble Gal-3; Gal-3 cDNA fused to classical secretion signal peptide from the plasminogen activator gene, produced in 293 cells
decrease in cell number (LN-Z308 glioma cells): greater than 75%
decrease in cell number (LN229 glioma cells): greater than 75%
decrease in cell number (SF767 glioma cells): greater than 75%
sensitivity to sGal-3 presence in the medium [2]: sensitive
sensitivity to sGal-3 presence in the medium [3]: sensitive
sensitivity to sGal-3 presence in the medium [4]: sensitive
sensitivity to sGal-3 presence in the medium [5]: sensitive
sensitivity to sGal-3 presence in the medium [6]: sensitive
sensitivity to sGal-3 presence in the medium [7]: sensitive
viability in response to secreted Gal-3 in the media [8]: did not show decreased viability
viability in response to secreted Gal-3 in the media [9]: did not show decreased viability
apoptotic features ([10]; sGal-3 alone, as early as 12 h post treatment): membrane blebbing, and cell death
Caspase-3 and PARP cleavage ([11]; within 12 h of sGal-3 treatment): Caspase-3 and PARP cleavage
cell death upon induction of sGal-3 [12]: cell death in all three clones
average tumor volume at termination versus controls ([13]; clone #12, p<0.02): over six-fold smaller
tumors developed ([13]; clone #12, sGal-3 induced by dox in drinking water for 12 weeks, control 14/18): 4 of the 18
tumor size at termination, fold smaller than control group ([13]; clone #21, on average): 4 fold
tumors grew ([13]; clone #21, sGal-3 expression, control 16/18): 6 of 18

COc1cc([C@@H]2c3cc4c(cc3[C@@H](O[C@@H]3O[C@@H]5CO[C@@H](C)O[C@H]5[C@H](O)[C@H]3O)[C@H]3COC(=O)[C@H]23)OCO4)cc(OC)c1O [Etoposide, etoposide]
secretion of Gal-3 in the media [14]: enhanced secretion of Gal-3
levels of cell death (SF767 cells): marked levels of apoptosis

COC(=O)C[C@H](NC(=O)[C@H](C)NC(=O)[C@@H](NC(=O)OCc1ccccc1)C(C)C)C(=O)CF [Z-VAD, Z-VAD-FMK, reference compound] (Cbz-Val-Ala-Asp(OMe)-CH2F)
effect on sGal-3-mediated cell death ([10]; co-treatment with 50 μM Z-VAD): inhibited
effect on sGal-3-induced Caspase-3 and PARP cleavage ([11]; co-treatment with 50 μM Z-VAD): neutralized

From patent US20100330602A1, “Use of Soluble Galectin-3 (Gal-3) for Cancer Treatment” (Emory University, priority 2006, published 2010)
